Here are results for 22 compounds from patent US20260028336A1 (Arcus Biosciences, Inc., priority 2022, published 2026).

The target in one experiment is T1, Cbl-b (Homo sapiens, UniProt Q13191).
T1 construct: biotin (biotinylated)
Put plainly: Cbl-b probe displacement HTRF binding assay. To be noted: 0.4 nM biotinylated Cbl-b, 150 nM BODIPY probe. As to the method:
The affinity with which compounds of the present dislcosure bind to Cbl-b was assessed using probe displacement homologous time resolved fluorescence (HTRF) assays. […] The assays were performed in assay buffer consisting of 20 mM Hepes, 150 mM NaCl, 0.01% Triton X-100, 0.5 mM TCEP, 0.01% BSA. On the day of the assay, a 20 point, 1:2 master serial dilution of each compound was prepared in DMSO to span a final concentration range of […] to 0 nM. Two hundred nanoliters of diluted compound was added to each well of a 384-well plate. Fifteen microliters of biotinylated-Cbl-b resuspended in assay buffer were added to each well and the plate incubated for 60 minutes at room temperature prior to addition of 5 μL of BODIPY™ probe in assay buffer. […] After a further 15 minutes of incubation at room temperature, 5 μl of Streptavidin-Terbium cryptate reagent at 5-fold final concentration was added to each well of the 384-well plate. Binding of a probe to Cbl-b results in an increase of HTRF signal. […] Percentage maximum activity in each test well was calculated based on DMSO (maximum activity, 0% displacement) and no protein control wells (baseline activity, 100% displacement). Binding affinity was determined from a dose response curve fitted using a standard four parameter fit equation.
In general terms: Time-resolved FRET reads energy transfer from a long-lived donor to a nearby acceptor.

A further experiment has as its system Jurkat cells. Put plainly: IL-2 secretion assay in CD3/CD28-activated Jurkat cells (AlphaLISA). Type of experiment: cell-based. To be noted: Homo sapiens, CD3/CD28 T Cell Activator, 24 h, IL-2 AlphaLISA. On the procedure: Certain compounds were also evaluated in an IL-2 secretion assay. On the day of the assay, a 16 point, 1:2 master serial dilution of each compound was prepared in Opti-MEM to span a final concentration range of 10 μM to 300 pM. Assays were set up in CORNING® tissue culture-treated 384-well microplates containing 60 nL of each dilution. […] 50,000 cells/well and added to the compound plates. After a short spin (1200 rpm for 1 min), the plates were incubated at 37° C. for 1 hour. The cells were activated by adding 15 μL of IMMUNOCULT™ Human CD3/CD28 T Cell Activator ([…] Technologies) diluted in Opti-MEM. […] The AiphaLISA signal was measured using an EnVision plate reader (PerkinElmer). EC50 values were determined by fitting the data to a standard 4-parameter logistic equation.

Some results are limits rather than exact numbers.

T1 sequence (Q13191 whole entry, species assumed): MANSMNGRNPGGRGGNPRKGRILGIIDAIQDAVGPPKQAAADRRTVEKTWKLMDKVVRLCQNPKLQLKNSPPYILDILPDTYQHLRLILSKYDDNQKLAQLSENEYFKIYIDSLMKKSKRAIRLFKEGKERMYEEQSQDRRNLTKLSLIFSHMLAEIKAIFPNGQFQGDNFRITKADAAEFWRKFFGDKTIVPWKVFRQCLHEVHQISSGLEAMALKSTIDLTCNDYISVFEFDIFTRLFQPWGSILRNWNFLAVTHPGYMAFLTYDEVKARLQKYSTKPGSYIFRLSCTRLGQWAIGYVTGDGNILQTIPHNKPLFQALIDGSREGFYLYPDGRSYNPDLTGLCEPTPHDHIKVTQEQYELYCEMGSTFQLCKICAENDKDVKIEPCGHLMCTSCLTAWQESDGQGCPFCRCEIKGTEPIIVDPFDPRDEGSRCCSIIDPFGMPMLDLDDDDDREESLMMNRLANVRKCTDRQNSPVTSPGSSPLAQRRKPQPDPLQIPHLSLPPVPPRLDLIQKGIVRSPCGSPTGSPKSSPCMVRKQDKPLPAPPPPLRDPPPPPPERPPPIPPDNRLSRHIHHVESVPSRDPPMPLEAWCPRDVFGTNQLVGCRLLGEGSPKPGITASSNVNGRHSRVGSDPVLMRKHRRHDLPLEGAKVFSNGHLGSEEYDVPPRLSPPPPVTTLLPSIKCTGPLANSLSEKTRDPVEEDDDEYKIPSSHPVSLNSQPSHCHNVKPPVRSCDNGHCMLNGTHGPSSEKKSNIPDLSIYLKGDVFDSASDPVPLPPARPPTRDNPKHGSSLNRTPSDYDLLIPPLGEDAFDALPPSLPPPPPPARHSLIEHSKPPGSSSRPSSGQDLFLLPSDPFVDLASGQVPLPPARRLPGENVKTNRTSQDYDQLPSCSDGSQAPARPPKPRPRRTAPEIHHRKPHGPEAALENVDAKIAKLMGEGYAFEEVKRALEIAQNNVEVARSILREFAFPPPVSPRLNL

As to `Cn1cnnc1[C@]1(c2cccc(-n3cc(C4CC4)c4nc[nH]c4c3=O)c2)C[C@@H](C)C1` (single isomer, unassigned) [Example 12, 7-cyclopropyl-5-{3-[(1s,3r)-3-methyl-1-(4-methyl-4H-1,2,4-triazol-3-yl)cyclobutyl]phenyl}-3H,4H,5H-imidazo[4,5-c]pyridin-4-one], the IC50 at Cbl-b is 100 to 1000 nM. In the experiment with Jurkat cells, the EC50 is 1000 to 5000 nM.
In the same order, the values of `Cn1cnnc1[C@]1(c2cccc(-n3cc(C4CC4)c4c(C#N)c[nH]c4c3=O)c2)C[C@H](C)C1` (single isomer, unassigned) [Example 14, 4-Cyclopropyl-7-oxo-6-{3-[(1r,3s)-3-methyl-1-(4-methyl-4H-1,2,4-triazol-3-yl)cyclobutyl]phenyl}-1H,6H,7H-pyrrolo[2,3-c]pyridine-3-carbonitrile] are below 100 nM and 100 to 1000 nM.
`Cn1cncc1-c1c[nH]c2c(=O)n(-c3cccc([C@]4(c5nncn5C)C[C@@H](C)C4)c3)cc(C3CC3)c12` (single isomer, unassigned) [Example 34] showed an IC50 at Cbl-b below 100 nM. In the experiment with Jurkat cells, this compound returned an EC50 of 1000 to 5000 nM.
In the same order, the values of `Cn1cnnc1[C@]1(c2cccc(-n3cc(C(F)(F)F)c4cc[nH]c4c3=O)c2)C[C@H](C)C1` (single isomer, unassigned) [Example 36] are below 100 nM and 100 to 1000 nM.
For `Cn1cnnc1[C@]1(c2cccc(-n3cc(C(F)(F)F)c4cc[nH]c4c3=O)c2)C[C@@H](C)C1` (single isomer, unassigned) [Example 37], in that order: below 100 nM and 100 to 1000 nM.
In the same order, the values of `C[C@H]1CCCN(Cc2cc3c(S(C)(=O)=O)cn(-c4cccc([C@]5(c6nncn6C)C[C@@H](C)C5)c4)c(=O)c3[nH]2)C1` (single isomer, unassigned) [Example 107] are below 100 nM and below 100 nM.
As to `Cn1cnnc1[C@]1(c2cccc(-n3cc(S(C)(=O)=O)c4cc[nH]c4c3=O)c2)C[C@H](C)C1` (single isomer, unassigned) [Example 108, 6-[3-[3-methyl-1-(4-methyl-1,2,4-triazol-3-yl)cyclobutyl]phenyl]-4-methylsulfonyl-1H-pyrrolo[2,3-c]pyridin-7-one], the IC50 at Cbl-b was in the range of 100 to 1000 nM. Also, in the experiment with Jurkat cells, the EC50 is above 5000 nM.
In the same order, the values of `Cn1cnnc1[C@]1(c2cccc(-n3cc(C4CC4)c4[nH]c(=O)[nH]c4c3=O)c2)C[C@H](C)C1` (single isomer, unassigned) [Example 117, 7-cyclopropyl-5-[3-[cis-3-methyl-1-(4-methyl-1,2,4-triazol-3-yl)cyclobutyl]phenyl]-1,3-dihydroimidazo[4,5-c]pyridine-2,4-dione] are 100 to 1000 nM and above 5000 nM.
Take `Cn1cnnc1[C@]1(c2cccc(-n3cc(C4CC4)c4[nH]c(=O)[nH]c4c3=O)c2)C[C@@H](C)C1` (single isomer, unassigned) [Example 118, 7-cyclopropyl-5-[3-[trans-3-methyl-1-(4-methyl-1,2,4-triazol-3-yl)cyclobutyl]phenyl]-1,3-dihydroimidazo[4,5-c]pyridine-2,4-dione]: the IC50 on Cbl-b lay in the range of 100 to 1000 nM. The compound also displayed an EC50 with Jurkat cells above 5000 nM.
At Cbl-b, `CC1CC(c2cccc(-n3cc(C4CC4)c4cc[nH]c4c3=O)c2)(c2nncn2C)C1` (centres unmarked) [Example 4, 4-cyclopropyl-6-[3-[3-methyl-1-(4-methyl-1,2,4-triazol-3-yl)cyclobutyl]phenyl]-1H-pyrrolo[2,3-c]pyridin-7-one] came in with an IC50 of 100 to 1000 nM. In the experiment on Jurkat cells, this compound gave a 50% effective concentration (EC50) of 1000 to 5000 nM.
At Cbl-b, `Cn1cnnc1[C@]1(c2cccc(-n3cc(C4CC4)c4cn[nH]c4c3=O)c2)C[C@H](C)C1` [Example 7, 4-cyclopropyl-6-{3-[(1r,3s)-3-methyl-1-(4-methyl-4H-1,2,4-triazol-3-yl)cyclobutyl]phenyl}-1H,6H,7H-pyrazolo[3,4-c]pyridin-7-one] displayed an IC50 below 100 nM. For the same compound, the concentration giving a half-maximal response (EC50) with Jurkat cells lay within 1000 to 5000 nM.
`CC1CC(c2cccc(-n3cc(C4CC4)c4cc(CO)[nH]c4c3=O)c2)(c2nncn2C)C1` (centres unmarked) [Example 8, 4-cyclopropyl-2-(hydroxymethyl)-6-[3-[3-methyl-1-(4-methyl-1,2,4-triazol-3-yl)cyclobutyl]phenyl]-1H-pyrrolo[2,3-c]pyridin-7-one] gave an IC50 at Cbl-b of 1000 to 5000 nM. Besides, the EC50 in the experiment on Jurkat cells was 1000 to 5000 nM.
`Cn1cnnc1C1(c2cccc(-n3cc(C4CC4)c4cc[nH]c4c3=O)c2)CCC1` [Example 9, 4-cyclopropyl-6-[3-[1-(4-methyl-1,2,4-triazol-3-yl)cyclobutyl]phenyl]-1H-pyrrolo[2,3-c]pyridin-7-one] gave a concentration for half-maximal inhibition (IC50) on Cbl-b of 100 to 1000 nM. Further, the half-maximal effective concentration (EC50) with Jurkat cells was 1000 to 5000 nM.
Consider `Cn1cnnc1[C@]1(c2cccc(-n3cc(C#N)c4cc[nH]c4c3=O)c2)C[C@H](C)C1` [Example 38, 7-oxo-6-{3-[(1r,3s)-3-methyl-1-(4-methyl-4H-1,2,4-triazol-3-yl)cyclobutyl]phenyl}-1H,6H,7H-pyrrolo[2,3-c]pyridine-4-carbonitrile], for which the IC50 at Cbl-b was below 100 nM. In the experiment with Jurkat cells, this compound registered a concentration for a half-maximal effect (EC50) of 1000 to 5000 nM.
For `CC1CC(c2cccc(-n3cc(C4CC4)c4cc(CNC5(C)CCC5)[nH]c4c3=O)c2)(c2nncn2C)C1` (centres unmarked) [Example 39, 4-cyclopropyl-6-{3-[3-methyl-1-(4-methyl-4H-1,2,4-triazol-3-yl)cyclobutyl]phenyl}-2-{[(1-methylcyclobutyl)amino]methyl}-1H,6H,7H-pyrrolo[2,3-c]pyridin-7-one], in that order: below 100 nM and below 100 nM.
In the same order, the values of `CC1CC(c2cccc(-n3cc(C4CC4)c4cc(CN[C@@H]5COC[C@@H]5O)[nH]c4c3=O)c2)(c2nncn2C)C1` (stereo partly drawn) [Example 40, 4-cyclopropyl-2-({[(3R,4R)-4-hydroxyoxolan-3-yl]amino}methyl)-6-{3-[3-methyl-1-(4-methyl-4H-1,2,4-triazol-3-yl)cyclobutyl]phenyl}-1H,6H,7H-pyrrolo[2,3-c]pyridin-7-one] are below 100 nM and 100 to 1000 nM.
For `CC1CC(c2cccc(-n3cc(C4CC4)c4cc(CNC5(C(F)(F)F)CC5)[nH]c4c3=O)c2)(c2nncn2C)C1` (centres unmarked) [Example 41, 4-cyclopropyl-6-{3-[(1r,3s)-3-methyl-1-(4-methyl-4H-1,2,4-triazol-3-yl)cyclobutyl]phenyl}-2-({[1-(trifluoromethyl)cyclopropyl]amino}methyl)-1H,6H,7H-pyrrolo[2,3-c]pyridin-7-one], the half-inhibitory concentration (IC50) on Cbl-b lay within 100 to 1000 nM. The half-maximal effective concentration (EC50) in the experiment with Jurkat cells lay in the range of 1000 to 5000 nM.
For `CC1CC(c2cccc(-n3cc(C4CC4)c4cc(CNC5(CO)CCC5)[nH]c4c3=O)c2)(c2nncn2C)C1` (centres unmarked) [Example 42, 4-cyclopropyl-2-({[1-(hydroxymethyl)cyclobutyl]amino}methyl)-6-{3-[3-methyl-1-(4-methyl-4H-1,2,4-triazol-3-yl)cyclobutyl]phenyl}-1H,6H,7H-pyrrolo[2,3-c]pyridin-7-one], in that order: below 100 nM and below 100 nM.
In the same order, the values of `CC1CC(c2cccc(-n3cc(C4CC4)c4cc(CN5CCCC[C@@H]5C)[nH]c4c3=O)c2)(c2nncn2C)C1` (some centres unmarked) [Example 43, 4-cyclopropyl-6-{3-[3-methyl-1-(4-methyl-4H-1,2,4-triazol-3-yl)cyclobutyl]phenyl}-2-{[(2S′)-2-methylpiperidin-1-yl]methyl}-1H,6H,7H-pyrrolo[2,3-c]pyridin-7-one] are below 100 nM and below 100 nM.
In the same order, the values of `CC1CC(c2cccc(-n3cc(C4CC4)c4cc(CN5CCO[C@H](C)C5)[nH]c4c3=O)c2)(c2nncn2C)C1` (stereo partly drawn) [Example 45, 4-cyclopropyl-6-{3-[3-methyl-1-(4-methyl-4H-1,2,4-triazol-3-yl)cyclobutyl]phenyl}-2-{[(2R)-2-methylmorpholin-4-yl]methyl}-1H,6H,7H-pyrrolo[2,3-c]pyridin-7-one] are below 100 nM and below 100 nM.
On to `CC1CC(c2cccc(-n3cc(C4CC4)c4cc(CNCCOC(F)(F)F)[nH]c4c3=O)c2)(c2nncn2C)C1` (centres unmarked) [Example 46, 4-cyclopropyl-6-{3-[3-methyl-1-(4-methyl-4H-1,2,4-triazol-3-yl)cyclobutyl]phenyl}-2-({[2-(trifluoromethoxy)ethyl]amino}methyl)-1H,6H,7H-pyrrolo[2,3-c]pyridin-7-one], for which the IC50 at Cbl-b was below 100 nM. This compound returned an EC50 in the experiment with Jurkat cells of 100 to 1000 nM.
Turning to `CC1CC(c2cccc(-n3cc(C4CC4)c4cc(CN(C)C5CCCC5)[nH]c4c3=O)c2)(c2nncn2C)C1` (centres unmarked) [Example 47, 2-{[cyclopentyl(methyl)amino]methyl}-4-cyclopropyl-6-{3-[3-methyl-1-(4-methyl-4H-1,2,4-triazol-3-yl)cyclobutyl]phenyl}-1H,6H,7H-pyrrolo[2,3-c]pyridin-7-one], the IC50 on Cbl-b is below 100 nM. The compound also showed a half-maximal effective concentration (EC50) with Jurkat cells below 100 nM.

Broadly, the IC50 is the concentration that inhibits the measured activity by half. A lower IC50 goes with greater potency. The term EC50 denotes the concentration giving half of the maximal effect. Higher therefore signals a less potent agent.
